Measurements reported in patent publication US4443460A, “2-[4-(Diphenylmethylene)-1-piperidinyl]-acetic acids and their amides” (UCB, Societe Anonyme, priority 1980, dated 1984).
Where a name gives a salt, the structure may show the parent alone.

Experiments:
mice [1] = experiment: General behaviour of mice (Irwin's test), tranquilization; type: in vivo; conditions: male mice, intraperitoneal
Experimental: The behaviour is studied by means of Irwin's test (see S. Irwin, "General philosophy and methodology of screening: a multidimensional approach"; Gordon Research Conference on Medicinal Chemistry, Aug. 3-7, 1959, at Colby Junior College, New London).
(§1) Progressive doses of the test compounds are administered intraperitoneally to groups of three male mice (body weight 18 to 22 g) and the general behaviour of the animals is observed according to known criteria. The reference compounds used are the following:
The following Table gives the doses (in mg/kg) which induce the first manifestations of tranquilization in the animals: […]

[2] = system: bronchospasms induced by acetylcholine; experiment: Konzett-Roessler bronchospasm test, acetylcholine-induced; type: in vivo; conditions: Cavia porcellus, iv, guinea pigs, i.v., read-out: dose which inhibits 50% of the induced bronchospasms, Acetylcholine
Experimental: (§2) These activities were measured in guinea pigs by the method of H. Konzett and R. […] Anaesthetized and curarized guinea pigs are subjected to artificial ventilation. The endotracheal pressure is recorded. Repeated bronchial spasms are induced by successive and progressive intravenous injections of respectively acetylcholine, histamine and serotonin. The test compounds are also administered intravenously.

[3] = Oral toxicity LD50 in rats; conditions: rat, in vivo
Experimental: (§3) The compounds according to the present invention have a very low toxicity. The toxicity LD50 (in mg/kg) is determined by oral administration to rats and mice. Thus, in the case of compound A, this toxicity is 1903 mg/kg in rats and 959 mg/kg in mice.

[4] = Oral toxicity LD50 in mice; conditions: mouse, in vivo
Experimental: as §3

[5] = system: respiratory spasm induced by pilocarpine; experiment: pilocarpine dog test, broncholytic activity; type: in vivo; conditions: dogs, i.v.
Experimental: Anaesthetized and curarized dogs are subjected to artificial ventilation. The endotracheal pressure is recorded. A constant respiratory spasm is induced by the continuous intravenous perfusion of pilocarpine. The test substances are also administered intravenously.

mice [6] = conditions: mouse, in vivo, ip
Experimental: as §1
Furthermore, in this test, the toxicity of the compounds according to the present invention appears to be very low. This toxicity, determined by intraperitoneal administration in mice (dose which brings about the death of two animals out of three), is given in the following Table: […]

[7] = system: bronchospasms induced by histamine; experiment: Konzett-Roessler bronchospasm test, histamine-induced (antihistaminic activity); type: in vivo; conditions: guinea pigs, i.v.; for ED50: Cavia porcellus, iv, histamine-induced, read-out: dose which inhibits 50% of the induced bronchospasms, Histamine
Experimental: as §2

[8] = system: passive cutaneous anaphylaxis; experiment: passive cutaneous anaphylaxis test (PCA), antiallergic activity; type: in vivo; conditions: Rattus norvegicus, 0.25 h; rats, oral, allergen i.v. 15 minutes after administration; read-out: ID 50 per os (reduction of 50% of the surface area of the colored spot)
Experimental: This activity is determined in rats by means of the passive cutaneous anaphylaxis test (PCA) (see J. Goose and A. M. J. N. Blair, Immunology,16,(1969),749-760; and U. Martin and D. Roemer, Arzneimittel-Forschung,28,(5), (1978),770-782).
Female rats are used, the sides of which have been partly shaved. Into the zone thus shaved there is injected intradermally, for passive sensitization of the animals, 0.05 ml of IGE antiovalbumin serum at a dilution such that, at the time of the PCA test, a distinct spot with a surface area of about 100 mm^2 appears at the point of injection.
72 Hours after the injection, 0.25 ml of a solution of allergen containing a coloring agent (5 mg of ovalbumin and 6 mg Evans Blue in 0.25 ml of a 0.9% aqueous solution of sodium chloride) is administered intravenously. At the point of intradermal injection, there appears a distinct blue spot, the surface of which is measured.
In order to test the activity of the compound according to the present invention, the procedure is carried out in the same manner; however:
the test compound is administered orally 72 hours after injection of the serum;
15 minutes after this administration, 0.25 ml of the solution of the allergen is injected intravenously;
30 minutes after the administration of the allergen, the surface of the blue spot is measured.
The following Table gives the immunological doses (ID 50 in μmol/kg) which bring about, on average of the total number of animals submitted to the test, a reduction of 50% of the surface area of the colored spot.

[9] = system: bronchospasms induced by serotonin; experiment: Konzett-Roessler bronchospasm test, serotonin-induced; type: in vivo; conditions: Cavia porcellus, iv, guinea pigs, i.v., read-out: dose which inhibits 50% of the induced bronchospasms, Serotonin
Experimental: as §2

| Structure (SMILES) | "Tranquilizing" dose (first manifestations of tranquilization) (mice [1]) | ED50 [2] | LD50 [3] | LD50 [4] | reduction of the intensity of the induced spasm ([5]; 320 μg/kg) | broncholytic activity compared with theophylline (in words) ([5]; vs theophylline) | Toxicity (dose which brings about the death of two animals out of three) (mice [6]) | ED50 [7] | antihistaminic activity 4 hours after injection ([7]; 1 mg/kg, 4 hours) | antihistaminic activity after 90 minutes ([7]; 1 mg/kg, after 90 minutes) | ED50 [8] | ED50 [9] |
| --- | --- | --- | --- | --- | --- | --- | --- | --- | --- | --- | --- | --- |
| OCCOCCN1CCN(C(c2ccccc2)c2ccc(Cl)cc2)CC1 (stereo not drawn) [Hydroxyzine, 1-(p-chloro-alpha-phenylbenzyl)-4-(2-hydroxyethoxyethyl)piperazine, reference compound] | 27 mg/kg |  |  |  |  |  |  |  |  |  |  |  |
| O=C1Nc2ccc(Cl)cc2C(c2ccccc2)=NC1O (stereo not shown) [Oxazepam, 7-chloro-1,3-dihydro-3-hydroxy-5-phenyl-2H-1,4-benzodiazepin-2-one, reference compound] | 2.6 mg/kg |  |  |  |  |  |  |  |  |  |  |  |
| Cl.O=C(O)COCCOCCN1CCC(=C(c2ccccc2)c2ccccc2)CC1 [compound A, 2-[2-[2-[4-(diphenylmethylene)-1-piperidinyl]ethoxy]ethoxy]-acetic acid hydrochloride] | 130 mg/kg | 4.13 mg/kg | 1900 mg/kg | 959 mg/kg | 50% | clearly superior to that of theophylline | 432 mg/kg | 2.65 mg/kg | retains this activity | 100% | 133 µmol/kg | 2.56 mg/kg |
| Cl.O=C(O)COCCN1CCC(=C(c2ccccc2)c2ccccc2)CC1 [compound B, 2-[2-[4-(diphenylmethylene)-1-piperidinyl]ethoxy]-acetic acid hydrochloride] | 105 mg/kg | > 82.5 mg/kg |  |  |  |  | 233 mg/kg | 0.037 mg/kg |  |  | 39 µmol/kg | 0.206 mg/kg |
| Cl.NC(=O)COCCOCCN1CCC(=C(c2ccccc2)c2ccccc2)CC1 [compound C, 2-[2-[2-[4-(diphenylmethylene)-1-piperidinyl]ethoxy]ethoxy]-acetamide hydrochloride] |  | 0.47 mg/kg |  |  |  |  | 258 mg/kg | 0.031 mg/kg |  |  | 76 µmol/kg | 0.009 mg/kg |
| Cl.NC(=O)COCCN1CCC(=C(c2ccccc2)c2ccc(Cl)cc2)CC1 [compound D, 2-[2-[4-[(4-chlorophenyl)phenylmethylene]-1-piperidinyl]ethoxy]-acetamide hydrochloride] |  |  |  |  |  |  | 126 mg/kg |  |  |  | 67.4 µmol/kg |  |
| NC(=O)COCCOCCN1CCC(=C(c2ccccc2)c2ccc(Cl)cc2)CC1 [compound E, 2-[2-[2-[4-[(4-chlorophenyl)phenylmethylene]-1-piperidinyl]ethoxy]ethoxy]-acetamide] |  | > 4.29 mg/kg |  |  |  |  | 128 mg/kg | 0.348 mg/kg |  |  | 34 µmol/kg | 0.085 mg/kg |
| NC(=O)COCCN1CCC(=C(c2ccccc2)c2ccccc2Cl)CC1 [compound F, 2-[2-[4-[(2-chlorophenyl)phenylmethylene-1-piperidinyl]ethoxy]-acetamide hydrochloride] | no sedative effect at all | > 1.35 mg/kg |  |  |  |  | 421 mg/kg | 0.551 mg/kg |  |  | 66 µmol/kg | 0.055 mg/kg |
| NC(=O)COCCN1CCC(=C(c2ccccc2)c2ccc(F)cc2)CC1 [compound G, 2-[2-[4-[(4-fluorophenyl)phenylmethylene]-1-piperidinyl]ethoxy]-acetamide] |  | > 11.8 mg/kg |  |  |  |  | 368 mg/kg | 0.093 mg/kg |  |  | 5.5 µmol/kg | 0.023 mg/kg |
